{"source": "patent US5250700A", "about": "“Phenyl pyrazolidinones as bronchodilators and anti-inflammatory agents” (American Home Products Corporation, priority 1992, dated 1993)", "note": "Structures can show the parent of a compound that is named as a salt."}
{"test_system": "PDE IV", "assay": "Inhibition of PDE IV isolated from canine tracheal muscle (cAMP metabolism)", "format": "biochemical", "details": "at 10^-5 (concentration unit not given); percentage of the reduction induced by 10 μM rolipram; canine trachealis PDE IV", "description": "(§1) The following assay is employed to assess the ability of the compound of the invention to inhibit PDE IV. A solution containing PDE IV is prepared from canine tracheal muscle as follows: The dog is euthanized with an overdose of euthanasia while under anesthesia induced by a 33 mg/kg IV bolus of Nembutal. The trachealis muscle is removed, cleaned of connective tissue, and minced thoroughly. Three to four grams of tissue is then homogenized in Trim-HCl buffer (pH 7.8) using a Polytron. The homogenate is then centrifuged at 25,000×g (4° C.) for 30 minutes. The supernatant is decanted and filtered through four layers of gauze, and applied to a 40 cm×2 cm DEAE-Sepharose column that is equilibrated with Trim-HCl buffer (pH 7.8). The column is then washed with an additional 240 mL of buffer to remove unbound proteins. […] Each fraction is assayed for cAMP- and cGMP- metabolizing PDE activity. Fractions eluting at approximately 0.6 M Na-acetate, and containing CAMP but not CGMP metabolic activity are pooled and used as a PDE stock solution for assaying PDE IV inhibitory activity. […] CI-930 is included as an inhibitor of the cyclic GMP-sensitive, cyclic AMP-selectivePDE (PDE III) that is also present in the PDE IV stock solution when prepared as described above.", "units": {"inhibition of PDE IV (percentage)": "%"}}
{"smiles": "COc1ccc(C2CC(=O)NN2C(N)=O)cc1OC1CCCC1", "note": "(stereo not shown) [Example 5, 5-[3-(Cyclopentyloxy)-4-methoxyphenyl]-3-oxo-1-pyrazolidinecarboxamide]", "inhibition of PDE IV (percentage)": 39}
{"test_system": "PDE IV", "assay": "Inhibition of PDE IV isolated from canine tracheal muscle (cAMP metabolism)", "format": "biochemical", "details": "canine trachealis PDE IV, 1 μM 3H-cAMP, 10 μM CI-930, 30° C., pH 7.8; reduction expressed relative to 10 μM rolipram", "description": "as §1", "units": {"IC50": "nM"}}
{"smiles": "CCNC(=O)N1C(=O)CC(c2ccc(OC)c(OC3CCCC3)c2)N1C", "note": "(stereo not shown) [Example 15, 3-[3-(cyclopentyloxy)-4-methoxylphenyl]-N-ethyl-2-methyl-5-oxo-1-pyrazolidinecarboxamide hydrochloride, hydrate]", "IC50": 49}
{"smiles": "CNC(=O)N1C(=O)CC(c2ccc(OC)c(OC3CCCC3)c2)N1C", "note": "(stereo not shown) [Example 9, 3-F3-(Cyclopentyloxy)-4-methoxyphenyl]-2-methyl-5-oxo-N-methyl-1-pyrazolidinecarboxamide, hemihidrate]", "IC50": 460}
{"smiles": "COc1ccc(C2CC(=O)N(CCCc3cccnc3)N2C)cc1OC1CCCC1", "note": "(stereo not shown) [Example 29, 5-[3(cyclopentyloxy)-4-methoxyphenyl]-1-methyl-2-[3-(3-pyridinyl)propyl]-3-pyrazolidinone quarter dichloromethane]", "IC50": 160}
{"smiles": "COc1ccc(C2CC(=O)N(C(=O)NCc3cccs3)N2C)cc1OC1CCCC1", "note": "(stereo not shown) [Example 39, 3-(3-Cyclopentyloxy-4-methoxyphenyl)-2-methyl-5-oxo-pyrazolidine-1-carboxylic acid thiophen-2-yl methylamide]", "IC50": 150}
{"smiles": "COc1ccc(C2CC(=O)N(C(=O)NC3CCCCC3)N2C)cc1OC1CCCC1", "note": "(stereo not shown) [Example 18, N-cyclohexyl-3-[3-(cyclopentyloxy)-4-methoxyphenyl]-2-methyl-5-oxo-1-pyrazolidine carboxamide hydrochloride]", "IC50": 100}
{"smiles": "COc1ccc(C2CC(=O)N(C)N2C)cc1OC1CCCC1", "note": "(stereo not shown) [Example 3, 5-[3-(Cyclopentyloxy)-4-methoxyphenyl]-1,2-dimethyl-3-pyrazolidinone, hydriodide]", "IC50": 820}
{"smiles": "COc1ccc(C2CC(=O)N(C(=O)c3cncc(Br)c3)N2C)cc1OC1CCCC1", "note": "(stereo not shown) [Example 28, 5-[3-(cyclopentyloxy)-4-methoxyphenyl]-1-methyl-2-(5-bromo-3-pyridinylcarbonyl)-3-pyrazolidinone]", "IC50": 350}
{"smiles": "COc1ccc(-c2cc(=O)n(C(=O)NCc3ccccn3)n2C)cc1OC1CCCC1", "note": "[Example 12, 3-[3-(cyclopentyloxy)-4-methoxyphenyl]-2.5-dihydro-2-methyl-5-oxo-N-(2-pyridinylmethyl)-1H-pyrazole-1-carboxamide]", "IC50": 420}
{"smiles": "CCCCCCCN1C(=O)CC(c2ccc(OC)c(OC3CCCC3)c2)N1C", "note": "(stereo not shown) [Example 26, 5-[3-(cyclopentyloxy)-4-methoxyphenyl-2-heptyl-1-methyl-3-pirazolidinone hydrochloride]", "IC50": 170}
{"smiles": "COc1ccc(C2CC(=O)N(C(=O)c3cccnc3)N2C)cc1OC1CCCC1", "note": "(stereo not shown) [Example 32, 5-[3-(cyclolpentyloxy)-4-methoxyphenyl]-1-methyl-2-(3-pyridinylcarbonyl)-3-pirazolidinone hemihydrate]", "IC50": 340}
{"smiles": "COc1ccc(-c2cc(=O)[nH]n2C)cc1OC1CCCC1", "note": "[Example 10, 5-[3-(cyclopentyloxy)-4-methoxyphenyl]-1,2-dihydro-1-methyl-3H-pyrazol-3-one]", "IC50": 310}
{"smiles": "COc1ccc(C2CC(=O)N(C(=O)N[C@@H](C)c3cccc4ccccc34)N2C)cc1OC1CCCC1", "note": "(single isomer, unassigned) [13 A]", "IC50": 12}
{"smiles": "COc1ccc(C2CC(=O)N(C/C=C/c3cncc(Br)c3)N2C)cc1OC1CCCC1", "note": "(stereo not shown) [Example 30, 2-[(E)-3-(5-bromo-3-pyridinyl)-2-propenyl]-5-[3-(cyclopentyloxy)-4-methoxyphenyl]-1-methyl-3-pyrazolidinone hemi(dichloromethane)]", "IC50": 50}
{"smiles": "COc1ccc(-c2cc(=O)n(C(N)=O)n2C)cc1OC1CCCC1", "note": "[Example 11, 3-[3-(cyclopentyloxy)-4-methoxylphenyl]-2.5-dihydro-2-methyl-5-oxo-1H-pyrazole-1-carboxamide]", "IC50": 380}
{"smiles": "COc1ccc(C2CC(=O)N(C(=S)NCc3ccc(F)cc3)N2C)cc1OC1CCCC1", "note": "(stereo not shown) [Example 20, 3-[3-(cyclopentyloxy)-4-methoxyphenyl]-N-[(4-fluorophenyl)-methyl]-2-methyl-5-oxo-1-pyrazolidinecarbothioamide]", "IC50": 65}
{"smiles": "COc1ccc(C2CC(=O)N(C(=O)NCCc3cccn3C)N2C)cc1OC1CCCC1", "note": "(stereo not shown) [Example 40, 3-(3-Cyclopentyloxy-4-methoxyphenyl)-2-methyl-5-oxo-pyrazolidine-1-carboxylic acid 2-(1-methyl-1H-pyrrol-2-yl) ethylamide]", "IC50": 190}
{"smiles": "COc1ccc(C2CC(=O)N(C(=O)NCc3ccccc3)N2C)cc1OC1CCCC1", "note": "(stereo not shown) [Example 17, 3-[3-(cyclopentyloxy)-4-methoxyphenyl]-2-methyl-5-oxo-N-(phenylmethyl)-1-pyrazolidinecarboxamide hydrochloride]", "IC50": 36}
{"smiles": "COc1ccc(C2CC(=O)N(C(=O)N[C@@H](C)c3cccc4ccccc34)N2C)cc1OC1CCCC1", "note": "(single isomer, unassigned) [13 B]", "IC50": 18}
{"smiles": "CCCCNC(=O)N1C(=O)CC(c2ccc(OC)c(OC3CCCC3)c2)N1C", "note": "(stereo not shown) [Example 14, N-butyl-3-f3-(cyclopentyloxy)-4-methoxyphenyl]-2-methyl-5-oxo-1-pyrazolidinecarboxamide hydrochloride]", "IC50": 260}
{"smiles": "COc1ccc(CNC(=S)N2C(=O)CC(c3ccc(OC)c(OC4CCCC4)c3)N2C)cc1", "note": "(stereo not shown) [Example 21, 3-[3-(cyclopentyloxy)-4-methoxyphenyl]-N-[(4-methoxyphenyl)methyl]-2-methyl-5-oxo-1-pyrazolidinecarbothioamide]", "IC50": 53}
{"smiles": "COc1ccc(C2CC(=O)NN2)cc1OC1CCCC1", "note": "(stereo not shown) [Example 1, 5-[3-(Cyclopentyloxy)-4-methoxyphenyl]-3-pyrazolidinone]", "IC50": 340}
{"smiles": "COc1ccc(C2CC(=O)N(C(=O)/C=C/c3cncc(Br)c3)N2C)cc1OC1CCCC1", "note": "(stereo not shown) [Example 33]", "IC50": 81}
{"smiles": "COc1ccc(C2CC(=O)N(C(=O)NCCCn3ccnc3)N2C)cc1OC1CCCC1", "note": "(stereo not shown) [Example 42, 3-(3-Cyclopentyloxy-4-methoxyphenyl)-2-methyl-5-oxo-pyrazolidine-1-carboxylic acid 3-imidazol-1-yl propylamide]", "IC50": 210}
{"smiles": "COc1ccc(C2CC(=O)N(C(=O)NCCCN3CCCC3=O)N2C)cc1OC1CCCC1", "note": "(stereo not shown) [Example 38, 3-(3-Cyclopentyloxy-4-methoxyphenyl)-2-methyl-5-oxo-pyrazolidine-1-carboxylic acid 3-(2-oxo-pyrrolidin-1-yl) propylamide]", "IC50": 560}
